Measured values reported in ChEMBL document CHEMBL1201862, “PubChem BioAssay data set” (2004).
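Exposure lasted 48 hours, with cells grown in 96-well plates and compounds tested at five concentrations. GI50 is the concentration that inhibits growth by half.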 Activity calls are given as the source filed them. Cut-off read from the data, not from the text of the source: active = GI50 up to about 1.1 µM and inactive = higher.

Key:
Assay in all cases: DTP human tumour cell line panel, 48 h
[1] = system: MOLT-4
[2] = system: HOP-62
[3] = system: SNB-75
[4] = system: SK-MEL-2
[5] = system: A549
[6] = system: UO-31
[7] = system: OVCAR-4
[8] = system: UACC-62
[9] = system: U-251
[10] = system: UACC-257
[11] = system: RPMI-8226
[12] = system: EKVX
[13] = system: M19-MEL
[14] = system: IGROV-1
[15] = system: SK-OV-3
[16] = system: A498
[17] = system: CAKI-1
[18] = system: MDA-MB-435
[19] = system: BT-549
[20] = system: NCI/ADR-RES

| Structure (SMILES) | GI50 [1] | GI50 [2] | GI50 [3] | GI50 [4] | GI50 [5] | GI50 [6] | GI50 [7] | GI50 [8] | GI50 [9] | GI50 [10] | GI50 [11] | GI50 [12] | GI50 [13] | GI50 [14] | GI50 [15] | GI50 [16] | GI50 [17] | GI50 [18] | GI50 [19] | GI50 [20] |
| --- | --- | --- | --- | --- | --- | --- | --- | --- | --- | --- | --- | --- | --- | --- | --- | --- | --- | --- | --- | --- |
| O=C(c1nc2ccccc2nc1O)C(O)c1ccco1 (stereo not given) | > 100 µM (inactive) | > 100 µM (inactive) | 45.8 µM (inactive) | > 100 µM (inactive) | > 100 µM (inactive) | 72.3 µM (inactive) | > 100 µM (inactive) | 61.5 µM (inactive) | > 100 µM (inactive) | > 100 µM (inactive) | > 100 µM (inactive) | > 100 µM (inactive) | > 100 µM (inactive) | > 100 µM (inactive) | > 100 µM (inactive) |  |  |  |  |  |
| Cc1ccc(C2(C)NC(=S)N(NC(N)=S)C2=S)cc1 (stereo not given) | 46.3 µM (inactive) | > 100 µM (inactive) | 25.3 µM (inactive) | > 100 µM (inactive) | > 100 µM (inactive) | > 100 µM (inactive) | > 100 µM (inactive) | 43.2 µM (inactive) | > 100 µM (inactive) | > 100 µM (inactive) | 32.7 µM (inactive) | > 100 µM (inactive) | > 100 µM (inactive) | > 100 µM (inactive) |  | > 100 µM (inactive) |  |  |  |  |
| Cc1ccc(SSCCCS(=O)O)cc1 | 15.2 µM (inactive) | 29.2 µM (inactive) | 21.8 µM (inactive) | 37.1 µM (inactive) | 31.9 µM (inactive) | 23.5 µM (inactive) | 43.8 µM (inactive) | 27.2 µM (inactive) | 17.4 µM (inactive) | 50.2 µM (inactive) |  | 33.1 µM (inactive) | 31.8 µM (inactive) | 7.93 µM (inactive) | 49.2 µM (inactive) | 28.1 µM (inactive) | 38.7 µM (inactive) |  |  |  |
| CCC12CCCN(Cc3ccccc3)C1c1c(n(C)c3ccccc13)[C@H](C(=O)OC)C2 (stereo not given in full) | > 239 µM (inactive) | > 239 µM (inactive) |  | > 239 µM (inactive) | > 239 µM (inactive) |  |  | > 239 µM (inactive) | > 239 µM (inactive) | 110 µM (inactive) | > 239 µM (inactive) | > 239 µM (inactive) | 130 µM (inactive) | > 239 µM (inactive) | > 239 µM (inactive) |  | 173 µM (inactive) |  |  |  |
| O=C1NC2(O)c3ccccc3C(=O)C2(O)N1c1ccccc1 (stereo not given) | > 100 µM (inactive) |  | > 100 µM (inactive) | > 100 µM (inactive) | > 100 µM (inactive) | > 100 µM (inactive) | > 100 µM (inactive) | > 100 µM (inactive) | > 100 µM (inactive) | > 100 µM (inactive) | > 100 µM (inactive) | > 100 µM (inactive) | > 100 µM (inactive) | > 100 µM (inactive) | > 100 µM (inactive) |  | > 100 µM (inactive) |  |  |  |
| Cc1ccc(NC(=O)CCC(=O)C2Cc3ccccc3C2=O)cc1C (stereo not given) | > 100 µM (inactive) | > 100 µM (inactive) | > 100 µM (inactive) | > 100 µM (inactive) | > 100 µM (inactive) | > 100 µM (inactive) | > 100 µM (inactive) | > 100 µM (inactive) | > 100 µM (inactive) | > 100 µM (inactive) | > 100 µM (inactive) | > 100 µM (inactive) | > 100 µM (inactive) | > 100 µM (inactive) | > 100 µM (inactive) | > 100 µM (inactive) | > 100 µM (inactive) |  |  |  |
| COc1ccc2c3c([nH]c2c1CC=C(C)C)C(=O)C=C(C)C3=O | 18.5 µM (inactive) | > 25 µM (inactive) | 14.4 µM (inactive) | > 25 µM (inactive) | > 25 µM (inactive) | > 25 µM (inactive) | 20.4 µM (inactive) | > 25 µM (inactive) | > 25 µM (inactive) | > 25 µM (inactive) | > 25 µM (inactive) | > 25 µM (inactive) | 11.6 µM (inactive) | > 25 µM (inactive) | > 25 µM (inactive) |  | > 25 µM (inactive) |  |  |  |
| CC1=CCP(C(F)(F)F)P(C(F)(F)F)C1 (stereo not given) | > 100 µM (inactive) | > 100 µM (inactive) | > 100 µM (inactive) |  | > 100 µM (inactive) | > 100 µM (inactive) | > 100 µM (inactive) | > 100 µM (inactive) | > 100 µM (inactive) | > 100 µM (inactive) | > 100 µM (inactive) | > 100 µM (inactive) | > 100 µM (inactive) | > 100 µM (inactive) | > 100 µM (inactive) | > 100 µM (inactive) | > 100 µM (inactive) |  |  |  |
| CC(=O)/C(=N\O)C(=O)NCCc1ccccc1 | > 100 µM (inactive) | > 100 µM (inactive) | > 100 µM (inactive) | > 100 µM (inactive) | 98.6 µM (inactive) | > 100 µM (inactive) | > 100 µM (inactive) | > 100 µM (inactive) | 63.5 µM (inactive) | 57.7 µM (inactive) | 57.7 µM (inactive) | > 100 µM (inactive) | > 100 µM (inactive) | > 100 µM (inactive) | > 100 µM (inactive) | > 100 µM (inactive) | > 100 µM (inactive) |  |  |  |
| O=C1CCC2(CCC(=O)NC2=O)C(=O)N1 | > 100 µM (inactive) | > 100 µM (inactive) |  |  | > 100 µM (inactive) | > 100 µM (inactive) |  |  | > 100 µM (inactive) | > 100 µM (inactive) | > 100 µM (inactive) | > 100 µM (inactive) | > 100 µM (inactive) | > 100 µM (inactive) | > 100 µM (inactive) |  |  |  |  |  |
| CCOP(=O)(C/C(=N/NC(C)(C)C)C(=O)Nc1nc2ccc(C)cc2s1)OCC | > 100 µM (inactive) | > 100 µM (inactive) | > 100 µM (inactive) | > 100 µM (inactive) | > 100 µM (inactive) | > 100 µM (inactive) | > 100 µM (inactive) | > 100 µM (inactive) | > 100 µM (inactive) | > 100 µM (inactive) |  | > 100 µM (inactive) | > 100 µM (inactive) | > 100 µM (inactive) | > 100 µM (inactive) | > 100 µM (inactive) | > 100 µM (inactive) |  |  |  |
| CCN1CCC(O)(/C=C/c2ccc(Cl)c(Cl)c2)C(C(=O)/C=C/c2ccc(Cl)c(Cl)c2)C1 (stereo not given) | 0.243 µM (active) | 0.951 µM (active) | 1.01 µM (active) | 1.04 µM (active) | 0.673 µM (active) | 0.995 µM (active) | 0.632 µM (active) | 0.973 µM (active) | 2.11 µM (inactive) | 0.986 µM (active) | 0.136 µM (active) | 0.731 µM (active) |  | 0.706 µM (active) | 1.72 µM (inactive) | 0.891 µM (active) | 1.82 µM (inactive) | 0.877 µM (active) | 0.733 µM (active) | 0.843 µM (active) |
| C/C(CC(=O)Nc1ccc([N+](=O)[O-])cc1)=N/N=C(N)N | > 100 µM (inactive) | > 100 µM (inactive) | > 100 µM (inactive) | > 100 µM (inactive) | > 100 µM (inactive) | > 100 µM (inactive) |  | > 100 µM (inactive) | > 100 µM (inactive) | > 100 µM (inactive) | > 10 µM (inactive) | > 100 µM (inactive) | > 100 µM (inactive) | > 100 µM (inactive) | > 100 µM (inactive) |  |  |  |  |  |
| O=C1CCC(=O)N1n1c(Cc2ccccc2)n[nH]c1=O | > 100 µM (inactive) | > 100 µM (inactive) | 5.26 µM (inactive) | > 100 µM (inactive) | > 100 µM (inactive) | > 100 µM (inactive) | > 100 µM (inactive) | > 100 µM (inactive) | > 100 µM (inactive) | > 100 µM (inactive) | > 100 µM (inactive) | > 100 µM (inactive) |  | > 100 µM (inactive) | > 100 µM (inactive) | > 100 µM (inactive) | > 100 µM (inactive) | > 100 µM (inactive) | > 100 µM (inactive) | > 100 µM (inactive) |
| CCN1C(=O)C(N=[N+]=[N-])(c2ccccc2)C(=O)c2ccccc21 (stereo not given) | 43.1 µM (inactive) | > 100 µM (inactive) | 83 µM (inactive) | > 100 µM (inactive) | 55.8 µM (inactive) | 43.7 µM (inactive) | 59 µM (inactive) | 62.8 µM (inactive) | > 100 µM (inactive) | 46.6 µM (inactive) | 35.6 µM (inactive) | 32.9 µM (inactive) | 43.1 µM (inactive) | > 100 µM (inactive) | > 100 µM (inactive) |  | > 100 µM (inactive) |  |  |  |
| Cc1cc(C(C)C)cc(=O)c(O)c1 | > 100 µM (inactive) | > 100 µM (inactive) | > 100 µM (inactive) |  | > 100 µM (inactive) | > 100 µM (inactive) | > 100 µM (inactive) | > 100 µM (inactive) | > 100 µM (inactive) | > 100 µM (inactive) | > 100 µM (inactive) | > 100 µM (inactive) | > 100 µM (inactive) | > 100 µM (inactive) | > 100 µM (inactive) | > 100 µM (inactive) | > 100 µM (inactive) |  |  |  |
| N=c1c2sc3nc4ccccc4n3c2ncn1Cc1ccccc1 | > 100 µM (inactive) | > 100 µM (inactive) | > 100 µM (inactive) | > 100 µM (inactive) | > 100 µM (inactive) | > 100 µM (inactive) | > 100 µM (inactive) | > 100 µM (inactive) | > 100 µM (inactive) | > 100 µM (inactive) | > 100 µM (inactive) | > 100 µM (inactive) |  | > 100 µM (inactive) | > 100 µM (inactive) | > 100 µM (inactive) | > 100 µM (inactive) | > 100 µM (inactive) | > 100 µM (inactive) | > 100 µM (inactive) |
